Assay results published in patent publication US12577235B2, “Crystalline form of CXCR2 antagonist and application thereof” (Shenzhen Optimum Biological Technology Co., Ltd, priority 2019, dated 2026).

Columns and labels:
[1] = Stability assay of solid crystalline form A at high temperature, high humidity, high temperature and high humidity, and illumination; format: physicochemical; details: for Stability and druggability (conclusion in words): solid state stress conditions
Description: The samples were placed in conditions of high temperature (60° C.), high humidity (92.5% humidity, 25° C.), high temperature and high humidity (60° C./75% humidity), and under illumination (including in the dark as control) for stability assay. For samples in a 60° C./75% thermostatic incubator and a 92.5% RH desiccator, the vials were sealed using films. On the films 5 small holes were provided to ensure that the sample was in sufficient contact with atmospheric air. For samples at 60° C., under illumination and in the dark, the vials were tightly capped (for the sample in the dark the vial was wrapped with tin foil). The samples were tested on day 10 for high humidity (92.5% humidity) condition, on days 5 and 10 for high temperature (60° C.) condition, on days 10 and 30 for high temperature and high humidity (60° C./75% humidity) condition, and on day 10 for illumination condition.

[2] = test system: PPE-induced SD rat COPD model; test: Therapeutic effect on PPE-induced COPD model; format: in vivo, SD rats; details: dose not stated (technical effects summary)
Text: • To test the therapeutic effect of the compound on PPE-induced SD rat COPD model. Materials: • Animals: SD rats (male, 160-180 g, 6 weeks age) • Test compounds: porcine pancreatic elastase (Sigma, 0.068 U/μL); Danirixin, compound 1. • Grouping: 1) vehicle group • 2) COPD model group (porcine pancreatic elastase modeling group/solvent group) • 3) PPE+Danirixin (30 mpk) • 4) PPE+compound 1 (10 mpk) • 5) PPE+compound 1 (30 mpk) Procedures: • 1. Modeling: PPE was given retrolingually. • 2. Administration: an aqueous solution of 1% DMSO/20% PEG400/79% (HP-b-CD) was used as the vehicle, and the drugs were administrated intragastrically everyday at a volume of 2 mL/rat for 4 weeks. • 3. Endpoint: On day 29, pulmonary function test, sample collection, and inflammatory cell count in bronchoalveolar lavage fluid.
Bronchoalveolar lavage: The rats were sacrificed, and dissected at the neck. Trachea intubation was performed. 1 mL of cold […] at 4° C. was infused for 3 lavages, and the lavage fluids were combined. The combined lavage fluids were centrifuged at 1200 rpm/min for 5 min, and the supernatant was discarded. The cell suspension was collected;

[3] = test system: rat COPD model induced by smoking combined with lipopolysaccharide; test: Anti-inflammation effect in rat COPD model induced by smoking combined with lipopolysaccharide; format: in vivo, SD rats
Description: Modeling: the animal model was prepared by exposing the rats to cigarette smoke once daily for 14 days. The rats were smoked for 90 min per day in 2 portions with a break of 10 min. 18 Marlboro cigarettes (with a tar content of 11 mg) were given each time. LPS was administered dropwise via airway at 200 μg/rat once weekly. The administration dropwise was performed on days 6 and 13 of smoke exposure (on the day of LPS administration dropwise, only LPS was administered dropwise for modeling without smoke exposure). • 2. Administration: an aqueous solution of 1% DMSO/20% PEG400/79% (HP-b-CD) was used as the vehicle, and the drugs were administrated intragastrically everyday at a volume of 5 mL/kg for 2 weeks. • 3. Endpoint: On day 15, pulmonary function test, sample collection, inflammatory cell count in bronchoalveolar lavage fluid, pathological analysis, and lung tissue MPO and MMP9 assay were carried out. Procedures of Pulmonary Function Test:
After the last smoking and modeling were finished, pulmonary function was tested for each group of animals on the second day, and pulmonary resistance and compliance were detected under stimulation of methacholine chloride at different doses. The animals were anesthetized by intraperitoneal injection with […] of 25% urethane. After the animals were deeply anesthetized, airway intubation was performed by separating airways, and meanwhile, jugular veins were separated. After breathing stably, the animals were put into a plethysmograph. Drug administration pipelines were inserted into the separated jugular veins. After the animals were in rest state for 1-2 min and the breathing curves were stable, then detection was started. Rats were administered with methacholine chloride at doses of 0, 0.0083, 0.025, 0.075, 0.225, 0.675 mg/kg by jugular vein intubation. The increase in airway resistance and decrease in pulmonary compliance were observed after each administration. After 1-2 min, the parameters returned to near the baseline of the previous concentration of methacholine chloride, and methacholine chloride of the next concentration was injected. After the detection was finished, subsequent alveolar lavage and sample collection were performed.
After the pulmonary function test was finished, the rats were sacrificed by cervical dislocation. After the animals were confirmed dead, the lungs were carefully separated, a lavage syringe was inserted into the main trachea and fixed with 2-0 silk thread. The right lung was ligated. 5 mL of low-temperature normal saline was slowly injected through the lavage syringe. The normal saline was slowly extracted after confirming that the normal saline was injected into the left lung. The operation was repeated twice. By the three lavages, a total of 15 mL of normal saline was injected for lavage. The obtained BALF was injected into a 15 mL centrifuge tube and preserved in a storage box at 4° C. for subsequent BALF cells counting.
After BALF was collected, the right lung which was not infused was taken off and weighted. The two upper lobes of the right lung were put into a cryopreservation tube, frozen in a freezer at −80° C. for later use. Lower lobe tissues were fixed in formalin.
1 mL of homogenously mixed BALF was added into 1 mL of a solution of 1% glacial acetic acid in normal saline. Cells were counted using a hemocytometer. The remaining lavage fluid was centrifuged at 1500 r/min for 10 min at 4° C. to give a cell mass. The cells were resuspended in 200 μL of normal saline, uniformly coated on a glass slide and stained by Wright-Giemsa stain. Macrophages, neutrophils and lymphocytes in a total of 200 cells were counted under a microscope, and the proportions of the cells was calculated. For lavage fluid collection, animals failing the lavage fluid collection were not summarized. […]

[4] = high humidity (92.5% humidity, 25° C.), day 0
[5] = high humidity (92.5% humidity, 25° C.), day 10
[6] = high temperature (60° C.), day 0
[7] = high temperature (60° C.), day 5
[8] = high temperature (60° C.), day 10
[9] = in the dark for 10 days (control)
[10] = 10 mg/kg vs Danirixin at 30 mg/kg
[11] = 10 mg/kg, methacholine 0.025 mg/kg
[12] = 30 mg/kg vs Danirixin at 30 mg/kg
[13] = at various doses (3, 10, 30 mpk)

Appearance ([1]; 60° C./75% humidity, day 0): White powder
Crystalline form ([1]; 60° C./75% humidity, day 0): Crystalline
Appearance ([1]; 60° C./75% humidity, day 10): White powder
Crystalline form ([1]; 60° C./75% humidity, day 10): Crystalline
Appearance ([1]; 60° C./75% humidity, day 30): White powder
Crystalline form ([1]; 60° C./75% humidity, day 30): Crystalline
Appearance [1, 4]: White powder
Crystalline form [1, 4]: Crystalline
Appearance [1, 5]: White powder
Crystalline form [1, 5]: Crystalline
Appearance [1, 6]: White powder
Crystalline form [1, 6]: Crystalline
Appearance [1, 7]: White powder
Crystalline form [1, 7]: Crystalline
Appearance [1, 8]: White powder
Crystalline form [1, 8]: Crystalline
Appearance [1, 9]: White
Crystalline form [1, 9]: Crystalline
Stability and druggability (conclusion in words) ([1]; listed as crystalline form A of compound 1): good stability and druggability
Appearance ([1]; under illumination for 10 days): White
Crystalline form ([1]; under illumination for 10 days): Crystalline
Structure (SMILES): O=C(Nc1ccc(Cl)c(S(=O)(=O)[C@H]2CCCNC2)c1O)N[C@@H]1CCCc2cc(C(F)(F)F)oc21 [crystalline form A]
Stability and druggability (conclusion in words) ([1]; listed as crystalline form A of the compound 1): good stability and desirable druggability
Number of neutrophils [2]: significantly reduce the number of neutrophils
Pulmonary function [2]: significantly improve the pulmonary function
Pulmonary function improvement and anti-inflammatory effects (summary) ([3]; 3 mg/kg): significant pulmonary function improvement and anti-inflammatory effects
Pulmonary resistance, effect relative to Danirixin ([3]; 3 mg/kg and 10 mg/kg vs Danirixin at 30 mg/kg): comparable to that of Danirixin
MPO content in lung tissues, effect relative to Danirixin ([3]; 3 mg/kg vs Danirixin at 30 mg/kg): comparable effect
Pulmonary resistance, methacholine-induced pulmonary function test ([3]; 3 mg/kg, methacholine 0.025 mg/kg): significant effects in improving the pulmonary resistance
Lung tissue pathology score, effect relative to Danirixin [3, 10]: comparable of that of Danirixin
MMP9 content in lung tissue, effect relative to Danirixin [3, 10]: comparable of that of Danirixin
Number of leukocytes in BALF, effect relative to Danirixin [3, 10]: comparable effect
Number of neutrophils in BALF, effect relative to Danirixin [3, 10]: comparable effect
Pulmonary compliance, effect relative to Danirixin [3, 10]: comparable to that of Danirixin
Pulmonary compliance, methacholine-induced pulmonary function test [3, 11]: significant effect in improving the pulmonary compliance
Pulmonary resistance, methacholine-induced pulmonary function test [3, 11]: significant effects in improving the pulmonary resistance
Lung tissue pathology score, effect relative to Danirixin [3, 12]: superior effect
MMP9 content in lung tissue, effect relative to Danirixin [3, 12]: superior effect
Lung tissue pathology score, dose dependence ([3]; 3, 10, 30 mpk): improved the pathology score in a dose-dependent manner
MMP9 content in lung tissue, dose dependence ([3]; 3, 10, 30 mpk): reduced the MMP9 content in lung tissue in a dose-dependent manner
Number of neutrophils in BALF, dose dependence ([3]; 3, 10, 30 mpk): reduced the number of neutrophils in a dose-dependent manner
Anti-inflammatory effect (summary) ([3]; Danirixin 30 mpk, crystalline form A 3-30 mpk): significant anti-inflammatory effect
Pharmacodynamic effect compared with Danirixin ([3]; at a lower dose than Danirixin): equivalent pharmacodynamic effect
Pharmacodynamic effect compared with Danirixin ([3]; at the same dose as Danirixin): superior pharmacodynamic effect
MPO content in lung tissues [3, 13]: significantly reduce the MPO content
Number of leukocytes in BALF [3, 13]: significantly reduce the number of leukocytes
Number of neutrophils in BALF ([3]; down to 3 mg/kg): significant effect
Lung tissue pathology score ([3]; down to 10 mg/kg): significant effect
MMP9 content in lung tissue ([3]; down to 10 mg/kg): significant effect
